Data as given in patent US8552161B2, “Saponin compounds, methods of preparation thereof, use thereof and pharmaceutical compositions” (Uniwersytet W Bialymstoku, priority 2009, dated 2013).

How the values were obtained:
[1] = test system: osteosarcoma cell line HOS; experiment: Calcein AM cytotoxicity assay, HOS; assay type: cell-based, human; settings: 72 h, means ± SD, three independent experiments in triplicate
Description: (§1) Stock solutions (10 mmol/l) of the tested compounds were prepared by dissolving relevant quantity of the substance in DMSO. Dulbecco's modified Eagle's medium (DMEM, RPMI 1640, F-12 medium), fetal bovine serum (FBS), L-glutamine, penicillin, streptomycin were purchased from Sigma (MO, USA). Calcein AM was obtained from Molecular Probes (Invitrogen Corporation, CA, USA).
(§2) The screening cell lines (T-lymphoblastic leukaemia cell line CEM, breast carcinoma cell line MCF-7, cervical carcinoma cell line HeLa, human glioblastoma cell line T98, human malignant melanoma G-361, human osteogenic sarcoma cell line HOS, carcinomic human alveolar basal epithelial cells A549, human colon carcinoma cells HCT 116 and human fibroblasts BJ) were obtained from the American Type Culture Collection (Manassas, Va., USA). All cell lines were cultured in DMEM medium (Sigma, Mo., USA). Medium was supplemented with 10% heat-inactivated fetal bovine serum, 2 mmol/l L-glutamine and 1% penicillin-streptomycin. The cell lines were maintained under standard cell culture conditions at 37° C. and 5% CO2 in a humid environment. Cells were subcultured twice or three times a week using the standard trypsinization procedure.
(§3) Cytotoxic activities of the novel compounds, obtained according to this invention, were tested in vitro against following cancer cell lines: T-lymphoblastic leukemia cell line CEM; breast carcinoma cell line MCF7, lung carcinoma cell line A549, cervical carcinoma cell line HeLa, malignant melanoma cell line G-361, osteosarcoma cell line HOS, human glioblastoma cell line T98, human colon carcinoma cells HCT 116 and normal human fibroblasts BJ. […] Usually, each test compound was evaluated at six 4-fold dilutions and in routine testing; the highest well concentration was 50 μM, although this varied in a few cases, depending on the test compound. […] The fluorescence of viable cells was quantified using a Fluoroscan Ascent instrument (Microsystems). […]

[2] = test system: malignant melanoma cell line G-361; experiment: Calcein AM cytotoxicity assay, G-361; assay type: cell-based, human; settings: 72 h, means ± SD, three independent experiments in triplicate
Description: (§4) Stock solutions (10 mmol/l) of the tested compounds were prepared by dissolving relevant quantity of the substance in DMSO. […] Calcein AM was obtained from Molecular Probes (Invitrogen Corporation, CA, USA).
(§5) All cell lines were cultured in DMEM medium (Sigma, Mo., USA). Medium was supplemented with 10% heat-inactivated fetal bovine serum, 2 mmol/l L-glutamine and 1% penicillin-streptomycin. The cell lines were maintained under standard cell culture conditions at 37° C. and 5% CO2 in a humid environment. Cells were subcultured twice or three times a week using the standard trypsinization procedure.
(§6) All cell lines were cultured in DMEM medium (Sigma, Mo., USA) supplemented with 10% fetal calf serum, 2 mM glutamine, 100 U/ml penicillin and 100 μg/ml streptomycin, at 37° C. in a fully humidified atmosphere containing 5% CO2. Suspensions of these lines (ca. 1.0×10^5 cells/ml) were placed in 96-well microtitre plates and after 3 h of stabilization the tested compounds were added in serially diluted concentrations. Saponins were dissolved in dimethylsulfoxide (DMSO) before addition to cultures. Control cultures were treated with DMSO alone. The final concentration of DMSO in the reaction mixtures never exceeded 0.6%. Four-fold dilutions of the intended test concentration were added at time zero in 20 μl aliquots to the microtitre plate wells. Usually, each test compound was evaluated at six 4-fold dilutions and in routine testing; the highest well concentration was 50 μM, although this varied in a few cases, depending on the test compound. After 72 h of culture, the cells were incubated with Calcein AM solution (Molecular Probes) for 1 h. The fluorescence of viable cells was quantified using a Fluoroscan Ascent instrument (Microsystems).

[3] = test system: lung carcinoma cell line A549; experiment: Calcein AM cytotoxicity assay, A549; assay type: cell-based, human; settings: 72 h, means ± SD, three independent experiments in triplicate, read-out: IC50, A 549
Description: as §4, §5, §6

[4] = test system: normal human fibroblasts BJ; experiment: Calcein AM cytotoxicity assay, normal fibroblasts BJ; assay type: cell-based; settings: 72 h, means ± SD, three independent experiments in triplicate
Description: as §4, §5, §6

[5] = test system: T-lymphoblastic leukemia cell line CEM; experiment: Calcein AM cytotoxicity assay, CEM; assay type: cell-based; settings: 72 h; for dose-dependent antiproliferative activity, number of viable cells (FIG. 1): CEM, increasing concentrations, Calcein AM; for IC50: Calcein AM assay, means ± SD, three independent experiments in triplicate
Description: as §4, §5, §6

[6] = test system: cervical carcinoma cell line HeLa; experiment: Calcein AM cytotoxicity assay, HeLa; assay type: cell-based; settings: 72 h, means ± SD, three independent experiments in triplicate
Description: as §4, §5, §6

[7] = test system: human colon carcinoma cells HCT 116; experiment: Calcein AM cytotoxicity assay, HCT 116; assay type: cell-based; settings: 72 h, means ± SD, three independent experiments in triplicate, read-out: IC50, HCT116
Description: as §1, §2, §3

[8] = test system: breast carcinoma cell line MCF7; experiment: Calcein AM cytotoxicity assay, MCF7; assay type: cell-based, human; settings: for IC50: Calcein AM assay, 72 h, means ± SD, three independent experiments in triplicate; for dose-dependent antiproliferative activity, number of viable cells (FIG. 1): MCF7, 72 h, increasing concentrations, Calcein AM
Description: as §4, §5, §6

[9] = test system: human glioblastoma cell line T98; experiment: Calcein AM cytotoxicity assay, T98; assay type: cell-based; settings: 72 h, means ± SD, three independent experiments in triplicate
Description: as §1, §2
as §6, with “Cytotoxic activities of the novel compounds, obtained according to this invention, were tested in vitro against following cancer cell lines: T-lymphoblastic leukemia cell line CEM; breast carcinoma cell line MCF7, lung carcinoma cell line A549, cervical carcinoma cell line HeLa, malignant melanoma cell line G-361, osteosarcoma cell line HOS, human glioblastoma cell line T98, human colon carcinoma cells HCT 116 and normal human fibroblasts BJ. All” for “All”, “(Microsystems). The percentage of surviving cells in each well was calculated from the equation […]=(ODdrug exposed well/mean ODcontrol wells)×100%. The IC50 value, the drug concentration lethal to 50% of the tumour cells, was calculated from the obtained dose-response curves.” for “(Microsystems).”

[10] = test system: leukemia HL-60 cancer cells; settings: cited from earlier work
P388 = settings: mice bearing P388, single administration of 0.01 mg/kg; cited from earlier work
[11] = test system: human leukemia and pancreatic cancer cells; settings: cited from earlier work

Structure (SMILES) | IC50 [1] [µM] | IC50 [2] [µM] | IC50 [3] [µM] | IC50 [4] [µM] | dose-dependent antiproliferative activity, number of viable cells (FIG. 1) [5] | IC50 [5] [µM] | IC50 [6] [µM] | IC50 [7] [µM] | IC50 [8] [µM] | dose-dependent antiproliferative activity, number of viable cells (FIG. 1) [8] | IC50 [9] [µM] | cytotoxicity relative to clinically applied anticancer agents (mitomycin C, adriamycin, cisplatin, camptothecin, taxol) ([10]; HL-60) | cytotoxic activity, HL-60 ([10]; NCI tests) | prolongation of life span (P388) [%] | effect on mitochondria [11]
CCCCCCCCCCCCCC(=O)OC[C@@H](C)[C@@]1(O)[C@@H](O[C@@H]2OC[C@H](O)[C@H](O[C@@H]3OC[C@@H](O)[C@H](O)[C@H]3OC(=O)c3ccc(OC)cc3)[C@H]2OC(C)=O)C[C@H]2[C@@H]3CC=C4C[C@@H](O)CC[C@]4(C)[C@H]3CC[C@@]21C [Compound 9, (20R)-21-O-tetradecanoyl-20-methylpregn-5-ene-3β,16β,17α,21-tetraol 16-O-{2-O-(4-methoxybenzoyl)β-D-xylopyranosyl-(1-43)-2′-O-acetyl-α-L-arabinopyranoside}] | 2.7 ± 0.6 | 0.03 ± 0.01 | 0.72 ± 0.07 | 0.083 ± 0.005 | significantly reduce the number of living cells | 0.016 ± 0.005 | 0.067 ± 0.002 | 2.8 ± 0.4 | 0.048 ± 0.022 | significantly reduce the number of living cells | 0.028 ± 0.001 |  |  |  | 
CC(C)CCC(=O)[C@@H](C)[C@@]1(O)[C@@H](O)C[C@H]2[C@@H]3CC=C4C[C@@H](O)CC[C@]4(C)[C@H]3CC[C@@]21C [OSW-1 aglycone, reference compound] | > 50 | > 50 | > 50 | > 50 |  | > 50 | > 50 | > 50 | > 50 |  | > 50 |  |  |  | 
COc1ccc(C(=O)O[C@H]2[C@H](O[C@@H]3[C@@H](OC(C)=O)[C@H](O[C@H]4C[C@H]5[C@@H]6CC=C7C[C@@H](O)CC[C@]7(C)[C@H]6CC[C@]5(C)[C@@]4(O)[C@H](C)C(=O)CCC(C)C)OC[C@@H]3O)OC[C@@H](O)[C@@H]2O)cc1 [OSW-1, reference compound] | 8.2 ± 0.4 | 1 ± 0.1 | 0.027 ± 0.003 | 0.0002 |  | 0.003 ± 3e-05 | 0.0034 ± 0.0003 | 8.4 ± 0.5 | 0.0544 ± 0.0002 |  | 0.07 ± 0.006 | 10-100 times | nanomolar concentrations | 59 | damaged the mitochondrial membrane and cristae
CCCCCCCCCCCCCCCCCC(=O)OC[C@@H](C)[C@@]1(O)[C@@H](O[C@@H]2OC[C@H](O)[C@H](O[C@@H]3OC[C@@H](O)[C@H](O)[C@H]3OC(=O)c3ccc(OC)cc3)[C@H]2OC(C)=O)C[C@H]2[C@@H]3CC=C4C[C@@H](O)CC[C@]4(C)[C@H]3CC[C@@]21C [Compound 10, (20R)-21-O-Octadecanoyl-20-methylpregn-5-ene-3β,16β,17α,21-tetraol 16-O-{2-O-(4-methoxybenzoyl)-β-D-xylopyranosyl-(1→3)-2′-O-acetyl-α-L-arabinopyranoside}] |  | 0.3 ± 0.1 | 0.55 ± 0.18 | 0.08 ± 0.004 | significantly reduce the number of living cells | 0.058 ± 0.001 | 0.435 ± 0.064 |  | 0.195 ± 0.021 | significantly reduce the number of living cells | 0.21 ± 0.05 |  |  |  | 
